Measurements reported in publication PMC7076352 (Pharmaceutics, 2020).

Tests used:
in vivo = assay: in vivo; parameters: species or system Sprague-Dawley (SD) rats; settings: Sprague-Dawley, plasma, rat
Description: At each time, 0.5 mL of blood was collected in the heparin sodium tubes. Plasma was separated by centrifugation at 4000 rpm for 10 min and stored below −80 °C until bioanalysis. Oasis PRiME HLB SPE cartridges (1 cc/30 mg, Waters, Milford, MA, USA) were used to process the plasma samples (Supplementary Materials).
The generic layout of instrumentation setup of the LVDI-UHPLC-MS/MS was conducted on a Shimadzu UHPLC system consisting of two LC-20ADXR pumps, a DGU-20A3R degasser, and a CBM-20A controller (Kyoto, Japan) with a SCIEX 4500 QTRAP mass spectrometer mounted with an electron spray ionization (ESI) interface as well as an electronic 6-port/2-channel valve (Foster City, CA, USA). Analyst software package (version 1.6.2, SCIEX) was implemented to control and synchronize the entire system, and also for data acquisition and processing. A single analytical run was fragmented into two phases, namely, loading and elution phases, by switching the electronic valve (Figure 2). At the loading phase, the valve was maintained at A-channel. The specimen aliquot of large volume delivered from the auto-sampler was captured onto a guard column. Meanwhile, the pumps were responsible for delivering the mobile phase at a high flow rate, aiming to dilute the sample solvent, thus facilitating the candidate constituents to concentrate on the pre-guard column. Then, the valve was automatically switched to the B-channel to trigger the elution phase. The trapped components were flushed from the pre-guard column into an analytical column, and underwent multiple reaction monitoring (MRM) analysis on the optimized LC gradients. The detailed information of LVDI-UHPLC-MS/MS analysis for pharmacokinetic and cocktail studies is shown in the Supplementary Materials section.

CYP2C19 = assay: In vitro cocktail CYP450 activity assay in rat liver microsomes, CYP2C19 (omeprazole probe)
Procedure, shortened: (§1)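 Probe substrates were pooled in a single microsomal incubation, with each substrate concentration optimized to keep metabolite formation linear. Metabolites were quantified against isotope-labelled internal standards: hydroxybupropion-[D6] (OHBUP-[D6]) and 5 nM 4′-hydroxydiclofenac-[^13C6] (OHDIC-[^13C6]).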

CYP2B6 = assay: In vitro cocktail CYP450 activity assay in rat liver microsomes, CYP2B6 (bupropion probe); settings: Sprague-Dawley, rat, pooled rat liver microsomes, pH 7.4, probe bupropion (90 µM, in seven-probe cocktail), IC50 CYP2B6, single components; RLM 0.2 mg/mL, 15 min, triplicate, mean ± SD
Procedure, shortened: as §1

CYP2C9 = assay: In vitro cocktail CYP450 activity assay in rat liver microsomes, CYP2C9 (tolbutamide probe)
Procedure, shortened: as §1

CYP2D6 = assay: in vitro; settings: Sprague-Dawley, rat
Procedure, shortened: as §1

CYP3A4 = assay: in vitro
Procedure, shortened: as §1

CYP1A2 = molecular target: T1, CYP1A2 (Rattus norvegicus, UniProt P04799); assay: In vitro cocktail CYP450 activity assay in rat liver microsomes, CYP1A2 (phenacetin probe); settings: IC50 CYP1A2, single components; RLM 0.2 mg/mL, 15 min, triplicate, mean ± SD
T1 sequence (P04799 1-513): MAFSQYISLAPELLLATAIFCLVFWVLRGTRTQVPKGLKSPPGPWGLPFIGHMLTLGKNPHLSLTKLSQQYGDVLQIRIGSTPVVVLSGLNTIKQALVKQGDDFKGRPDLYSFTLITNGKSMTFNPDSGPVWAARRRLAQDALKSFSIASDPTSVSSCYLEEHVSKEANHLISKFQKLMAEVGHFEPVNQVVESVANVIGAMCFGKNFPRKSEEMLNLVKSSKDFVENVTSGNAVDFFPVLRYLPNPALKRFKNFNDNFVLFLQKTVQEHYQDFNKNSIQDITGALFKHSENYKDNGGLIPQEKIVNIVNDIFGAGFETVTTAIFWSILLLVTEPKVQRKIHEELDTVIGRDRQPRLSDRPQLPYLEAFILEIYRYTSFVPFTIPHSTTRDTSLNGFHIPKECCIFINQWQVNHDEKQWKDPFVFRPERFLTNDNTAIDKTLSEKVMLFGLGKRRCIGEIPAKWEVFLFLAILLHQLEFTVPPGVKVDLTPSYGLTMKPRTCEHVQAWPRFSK
Procedure, shortened: as §1

CYP2E1 [1] = molecular target: T2, CYP2E1 (Rattus norvegicus, UniProt P05182); settings: IC50 CYP2E1, single components; RLM 0.2 mg/mL, 15 min, triplicate, mean ± SD
CYP2E1 [2] = molecular target: T2, CYP2E1; settings: Sprague-Dawley, rat, 15 min, pH 7.4
[3] = at the Cmax level in rat plasma, calculated from the dose–response curve

T2 sequence (P05182 whole entry): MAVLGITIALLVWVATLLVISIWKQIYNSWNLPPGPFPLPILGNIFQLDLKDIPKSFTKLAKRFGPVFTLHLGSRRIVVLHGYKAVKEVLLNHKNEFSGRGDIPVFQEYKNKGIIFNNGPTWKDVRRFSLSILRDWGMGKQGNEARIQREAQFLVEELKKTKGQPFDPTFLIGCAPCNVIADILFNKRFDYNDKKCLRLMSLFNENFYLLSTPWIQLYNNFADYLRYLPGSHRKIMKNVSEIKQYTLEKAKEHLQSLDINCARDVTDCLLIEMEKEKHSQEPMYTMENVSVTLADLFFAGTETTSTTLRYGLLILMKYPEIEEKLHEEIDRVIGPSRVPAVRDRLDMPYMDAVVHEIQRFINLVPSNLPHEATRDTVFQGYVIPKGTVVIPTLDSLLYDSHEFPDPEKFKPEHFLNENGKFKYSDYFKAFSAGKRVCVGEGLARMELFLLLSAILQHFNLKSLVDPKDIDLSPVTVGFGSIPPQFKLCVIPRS

CC(C)=CCC[C@](C)(O[C@@H]1O[C@H](CO)[C@@H](O)[C@H](O)[C@H]1O)[C@H]1CC[C@]2(C)[C@@H]1[C@H](O)C[C@@H]1[C@@]3(C)CC[C@H](O)C(C)(C)[C@@H]3[C@@H](O[C@@H]3O[C@H](CO)[C@@H](O)[C@H](O)[C@H]3O[C@@H]3OC[C@@H](O)[C@H](O)[C@H]3O)C[C@]12C [NGR1, notoginsenoside R1]
concentration at […] (in vivo; 0.083 h after oral CNP): 0.26 ± 0.06 ng/mL
concentration at 0.25 h (in vivo; 0.25 h after oral CNP): 0.36 ± 0.05 ng/mL
concentration at 0.5 h (in vivo; 0.5 h after oral CNP): 0.53 ± 0.29 ng/mL
concentration at 1 h (in vivo; 1 h after oral CNP): 0.45 ± 0.19 ng/mL
concentration at 1.5 h (in vivo; 1.5 h after oral CNP): 0.33 ± 0.12 ng/mL
concentration at 2 h (in vivo; 2 h after oral CNP): 0.32 ± 0.05 ng/mL
concentration at 3 h (in vivo; 3 h after oral CNP): 0.44 ± 0.15 ng/mL
concentration at 4 h (in vivo; 4 h after oral CNP): 0.38 ± 0.12 ng/mL
concentration at 6 h (in vivo; 6 h after oral CNP): 0.37 ± 0.17 ng/mL
concentration at 8 h (in vivo; 8 h after oral CNP): 0.46 ± 0.15 ng/mL
concentration at 12 h (in vivo; 12 h after oral CNP): 0.38 ± 0.18 ng/mL
concentration at 24 h (in vivo; 24 h after oral CNP): 0.17 ± 0.06 ng/mL
AUC(0-inf) (in vivo; po, 60 mg/kg): 8.14 ± 3.6 ng·h/mL
AUC(0-t) (in vivo; po, 60 mg/kg): 6.3 ± 2.41 ng·h/mL
Cmax (in vivo; po, 60 mg/kg): 0.64 ± 0.18 ng/mL
Tmax (in vivo; po, 60 mg/kg): 1.15 ± 1.06 h
half-life (in vivo; po, 60 mg/kg): 10.5 ± 3.06 h
concentration at 0.25 h (in vivo; po, 60 mg·kg^−1): 0.46 ± 0.18 ng/mL
concentration at 0.5 h (in vivo; po, 60 mg·kg^−1): 0.5 ± 0.15 ng/mL
concentration at 1 h (in vivo; po, 60 mg·kg^−1): 0.45 ± 0.14 ng/mL
concentration at 1.5 h (in vivo; po, 60 mg·kg^−1): 0.28 ± 0.1 ng/mL
concentration at 2 h (in vivo; po, 60 mg·kg^−1): 0.25 ± 0.11 ng/mL
concentration at 3 h (in vivo; po, 60 mg·kg^−1): 0.46 ± 0.2 ng/mL
concentration at 4 h (in vivo; po, 60 mg·kg^−1): 0.38 ± 0.26 ng/mL
concentration at 6 h (in vivo; po, 60 mg·kg^−1): 0.25 ± 0.06 ng/mL
concentration at 8 h (in vivo; po, 60 mg·kg^−1): 0.35 ± 0.06 ng/mL
concentration at 12 h (in vivo; po, 60 mg·kg^−1): 0.35 ± 0.14 ng/mL
concentration at 24 h (in vivo; po, 60 mg·kg^−1): 0.14 ± 0.04 ng/mL
IC50 at 15 min (CYP2C19; Sprague-Dawley, rat, pooled rat liver microsomes, pH 7.4, probe omeprazole (1.07 µM, in seven-probe cocktail), IC50 CYP2C19, single components, RLM 0.2 mg/mL, 15 min, triplicate, mean ± SD): 108 ± 29.6 µM
Response (% control) CYP2C19 (CYP2C19; [3]): 92.32 % control
IC50 at 15 min (CYP2B6): > 200 µM
IC50 at 15 min (CYP2C9; Sprague-Dawley, rat, pooled rat liver microsomes, pH 7.4, probe tolbutamide (18 µM, in seven-probe cocktail), IC50 CYP2C9, single components, RLM 0.2 mg/mL, 15 min, triplicate, mean ± SD): 154 ± 16.6 µM
Response (% control) CYP2C9 (CYP2C9; [3]): 99.99 % control
Response (% control) CYP2D6 (CYP2D6; 15 min, pH 7.4): 92.76 % control
IC50 at 15 min (CYP2D6; microsomes, pH 7.4, IC50 CYP2D6): 20.4 ± 3.45 µM
IC50 (CYP3A4; Sprague-Dawley, rat, microsomes, pH 7.4, IC50 CYP3A4, single components, RLM 0.2 mg/mL, 15 min, triplicate, mean ± SD): 84.6 ± 1.79 µM
Response (% control) CYP3A4 (CYP3A4; [3]): 99.94 % control
IC50 (CYP1A2): 112 ± 7.72 µM
IC50 (CYP2E1 [1]): 122 ± 8.96 µM
Response (% control) CYP2E1 (CYP2E1 [2]): 99.99 % control
